# Where two headings read alike, the source gives them in different places.
# Experiments:
# [1] = system: aspartate aminotransferase (SGOT); test: Serum aspartate aminotransferase (SGOT) activity; type: in vivo, rat; conditions: female rats; for SGOT: for 3 days
# [2] = system: aspartate aminotransferase (SGOT); test: Serum aspartate aminotransferase (SGOT) activity; type: in vivo, rat; conditions: for Increased activity of aspartate aminotransferase: 3 days
# Protocol: (§1) Adult male rats (weighing 200-230 g) were divided into four groups of six animals each. Group 1 received an equivalent amount of saline and served as control. Animals from group 2, 3, and 4 were given methomyl 1, 2, and 4 mg/kg body weight i.p. respectively, between 8: 00 a.m. and 9:00 a.m., for three consecutive days. In the second set of experiments, adult male rats were divided into four groups. Animals from group 2, 3, and 4 were injected with 4 mg/kg body weight methomyl for one, three, and five successive days. The volume injected into the rats of body weight 200 g was 1 ml. […]
# (§2) Alanine aminotransferase and aspartate aminotransferase activity was measured using the Reitman and Frankel[12] method. Alkaline phosphatase activity was measured using Span diagnostic kits.[13] Cholinesterase activity was measured using the kinetic test method of Knedel et al.[14]
# mixed function oxidases = conditions: quails; cited from earlier work
# microsomal protein = type: in vivo, rat; conditions: for decrease in hepatic microsomal protein content: 3 days, vs control
# Protocol: (§3) Adult male rats (weighing 200-230 g) were divided into four groups of six animals each. Group 1 received an equivalent amount of saline and served as control. Animals from group 2, 3, and 4 were given methomyl 1, 2, and 4 mg/kg body weight i.p. respectively, between 8: 00 a.m. and 9:00 a.m., for three consecutive days. In the second set of experiments, adult male rats were divided into four groups. Animals from group 2, 3, and 4 were injected with 4 mg/kg body weight methomyl for one, three, and five successive days. The volume injected into the rats of body weight 200 g was 1 ml. In another experiment, adult female rats and old male rats (weighing 350-450 g, 8 months old) were divided into two groups of six animals each. Group 2 of each category received methomyl (4 mg/kg body weight, i.p., for three successive days), and group 1 of each category received an equivalent amount of saline and served as the control group.
# (§4) The rats were sacrificed by cervical dislocation, 24 hours after the last dose. Their livers were perfused in situ with ice cold 1.15% KCl containing 0.05 mM EDTA, rapidly excised, blotted dry, weighed, minced and homogenized with two volumes of ice cold 0.25 M sucrose solution, in a Potter-Elvehjem type homogenizer. The homogenate was centrifuged at 10,000 × g for 10 min, in a refrigerated centrifuge (REMI C-24). The microsomes were isolated by the procedure described by of Cinti et al.[4] The microsomal pellet was suspended in phosphate buffer (0.1 M, pH 7.4) and the suspension was used for the microsomal enzyme assays. Microsomal protein content was measured by the Biuret method, using bovine serum albumin as the standard.[5]
# Male Wistar rats = conditions: 4 mg/kg; cited from earlier work
# Serum total protein [3] = type: in vivo, rat; conditions: female rats; for Serum total protein: for 3 days; for decrease in total protein content: 3 days
# Serum total protein [4] = type: in vivo, rat; conditions: for decrease in total protein content: 3 days
# Protocol: as §3
# [5] = system: alanine aminotransferase (SGPT); test: Serum alanine aminotransferase (SGPT) activity; type: in vivo, rat; conditions: for Increased activity of alanine aminotransferase: 3 days
# Protocol: as §1, §2
# old male rats = conditions: cited from earlier work
# [6] = system: alanine aminotransferase (SGPT); test: Serum alanine aminotransferase (SGPT) activity; type: in vivo, rat; conditions: female rats; for SGPT: for 3 days
# cytochrome P450 = test: Hepatic microsomal cytochrome P450 level; type: in vivo, rat; conditions: for decrease in cytochrome P450 content: 3 days
# Protocol: as §3, §4
# The microsomal electron transport components (cytochrome P450 and cytochrome b5) were determined using Hitachi UV-Visible double beam recording spectrophotometer, by the procedure of Omura and Sato.[67] Cytochrome c reductase activity was determined using the method recommended by Masters et al.[8] Aminopyrine N-demethylase activity was assayed according to the procedure described by Schenkman et al.[9] Formaldehyde liberated during N-demethylation was estimated by the procedure described by Nash.[10] Aniline hydroxylase assay was performed using the procedure reported by Govindwar and Dalvi.[11]
# [7] = classification; cited from earlier work
# red cell ChE = conditions: methomyl aerosol, male rats, repeated inhalation; cited from earlier work
# [8] = female rats, 4 mg/kg body weight i.p., for 3 days
# [9] = male rats, 1 mg/kg body weight i.p., for three days
# [10] = male rats, 2 mg/kg body weight i.p., for three days
# [11] = male rats, 4 mg/kg body weight i.p., for three days
# [12] = adult female rats, 4 mg/kg body weight, i.p., three days
# [13] = adult male rats, 1 mg/kg i.p., for 3 days
# [14] = adult male rats, 2 mg/kg i.p., for 3 days
# [15] = adult male rats, 4 mg/kg i.p., for 3 days
# [16] = adult rats, 4 mg/kg i.p., 1 day of treatment
# [17] = adult rats, 4 mg/kg i.p., 3 days of treatment
# [18] = adult rats, 4 mg/kg i.p., 5 days of treatment
# [19] = old male rats, 4 mg/kg body weight, i.p., three days
smiles,measurement,setting,value
"CNC(=O)ON=C(C)SC [methomyl, S-methyl-N-(methyl carbomyl)-thioacetimidate]",SGOT,[1]; 1 mg/kg body weight i.p.,43.5 u/l
same,SGOT,[1]; 2 mg/kg body weight i.p.,46.6 u/l
same,Increased activity of aspartate aminotransferase,"[1]; 2 mg/kg i.p., 3 days",26%
same,SGOT,[2]; [8],51.0 u/l
same,Increased activity of aspartate aminotransferase,"[2]; female rats, 4 mg/kg i.p.",39%
same,SGOT,[2]; [9],35.7 u/l
same,SGOT,[2]; [10],37.9 u/l
same,Increased activity of aspartate aminotransferase,"[2]; male rats, 2 mg/kg i.p.",9%
same,SGOT,[2]; [11],40.9 u/l
same,Increased activity of aspartate aminotransferase,"[2]; male rats, 4 mg/kg i.p.",8%
same,activity of mixed function oxidases,mixed function oxidases,inhibited
same,Microsomal protein,microsomal protein; [12],10.90 mg/g liver
same,decrease in hepatic microsomal protein content,"microsomal protein; adult male rats, 1 mg/kg i.p.",28%
same,Microsomal protein,microsomal protein; [13],13.53 mg/g liver
same,decrease in hepatic microsomal protein content,"microsomal protein; adult male rats, 2 mg/kg i.p.",31%
same,Microsomal protein,microsomal protein; [14],12.83 mg/g liver
same,decrease in hepatic microsomal protein content,"microsomal protein; adult male rats, 4 mg/kg i.p.",19%
same,Microsomal protein,microsomal protein; [15],15.10 mg/g liver
same,change in microsomal protein,"microsomal protein; adult male rats, 4 mg/kg i.p., one, three and five days",No significant change
same,Microsomal protein,microsomal protein; [16],15.77 mg/g liver
same,Microsomal protein,microsomal protein; [17],16.00 mg/g liver
same,Microsomal protein,microsomal protein; [18],12.20 mg/g liver
same,Microsomal protein,microsomal protein; [19],18.80 mg/g liver
same,duration of maximum severity,Male Wistar rats,about 30 min
same,time to development of signs of toxicity,Male Wistar rats,≤ 2 min
same,time to maximum severity (muscle fasciculation and convulsions),Male Wistar rats,5 to 10 min
same,time until free from obvious toxicity,Male Wistar rats,≤ 90 min
same,Serum total protein,Serum total protein [3]; 1 mg/kg body weight i.p.,1.90 g/dL
same,decrease in total protein content,Serum total protein [3]; 1 mg/kg i.p.,14%
same,Serum total protein,Serum total protein [3]; 2 mg/kg body weight i.p.,1.96 g/dL
same,decrease in total protein content,Serum total protein [3]; 2 mg/kg i.p.,11%
same,Serum total protein,Serum total protein [4]; [8],1.70 g/dL
same,decrease in total protein content,"Serum total protein [4]; female rats, 4 mg/kg i.p.",23%
same,Serum total protein,Serum total protein [4]; [9],2.02 g/dL
same,decrease in total protein content,"Serum total protein [4]; male rats, 1 mg/kg i.p.",13%
same,Serum total protein,Serum total protein [4]; [10],1.80 g/dL
same,decrease in total protein content,"Serum total protein [4]; male rats, 2 mg/kg i.p.",22%
same,Serum total protein,Serum total protein [4]; [11],1.60 g/dL
same,decrease in total protein content,"Serum total protein [4]; male rats, 4 mg/kg i.p.",30%
same,SGPT,[5]; [8],50.0 u/l
same,Increased activity of alanine aminotransferase,"[5]; female rats, 4 mg/kg i.p.",24%
same,SGPT,[5]; [9],47.3 u/l
same,SGPT,[5]; [10],50.0 u/l
same,Increased activity of alanine aminotransferase,"[5]; male rats, 2 mg/kg i.p.",12%
same,SGPT,[5]; [11],53.6 u/l
same,Increased activity of alanine aminotransferase,"[5]; male rats, 4 mg/kg i.p.",20%
same,"hemoglobin content, hematocrit value, erythrocyte, and leucocyte count",old male rats,Decreased
same,SGPT,[6]; 1 mg/kg body weight i.p.,43.0 u/l
same,SGPT,[6]; 2 mg/kg body weight i.p.,46.0 u/l
same,Increased activity of alanine aminotransferase,"[6]; 2 mg/kg i.p., 3 days",14%
same,Cytochrome P450,cytochrome P450; [12],0.21 nmole/mg protein
same,decrease in cytochrome P450 content,"cytochrome P450; adult male rats, 1 mg/kg i.p., vs control",34%
same,Cytochrome P450,cytochrome P450; [13],0.27 nmole/mg protein
same,decrease in cytochrome P450 content,"cytochrome P450; adult male rats, 2 mg/kg i.p., vs control",34%
same,Cytochrome P450,cytochrome P450; [14],0.27 nmole/mg protein
same,decrease in cytochrome P450 content,"cytochrome P450; adult male rats, 4 mg/kg i.p., vs control",19%
same,decrease in the level of cytochrome P450,"cytochrome P450; adult male rats, 4 mg/kg i.p., five days, vs control",37%
same,Cytochrome P450,cytochrome P450; [15],0.33 nmole/mg protein
same,decrease in the level of cytochrome P450,"cytochrome P450; adult male rats, 4 mg/kg i.p., one day, vs control",37%
same,decrease in the level of cytochrome P450,"cytochrome P450; adult male rats, 4 mg/kg i.p., three days, vs control",42%
same,Cytochrome P450,cytochrome P450; [16],0.30 nmole/mg protein
same,Cytochrome P450,cytochrome P450; [17],0.28 nmole/mg protein
same,Cytochrome P450,cytochrome P450; [18],0.30 nmole/mg protein
same,decrease in cytochrome P450,"cytochrome P450; old male rat, 4 mg/kg i.p., three days, vs control",43%
same,Cytochrome P450,cytochrome P450; [19],0.20 nmole/mg protein
same,pesticide toxicity category,[7],category-1
same,effect on red cell ChE,red cell ChE,no cumulative effect

# — paper PMC2792609, “Effect of methomyl on hepatic mixed function oxidases in rats” (Indian Journal of Pharmacology, 2008)
